Reference: patent publication US20220280530A1, “PREVENTION OR TREATMENT OF DISEASES AND DISORDERS ASSOCIATED WITH TISSUE DAMAGE” (priority 2019, published 2022)
Where two headings read alike, the source gives them in different places.

Legend:
MST1 = MST1 (Homo sapiens, UniProt Q13043); experiment: MST1 protein kinase inhibition (Table 5); assay type: biochemical
MST2 = target: T1, MST2 (Homo sapiens, UniProt Q13188); experiment: MST2 protein kinase inhibition (Table 5); assay type: biochemical
T1 sequence (Q13188 1-491): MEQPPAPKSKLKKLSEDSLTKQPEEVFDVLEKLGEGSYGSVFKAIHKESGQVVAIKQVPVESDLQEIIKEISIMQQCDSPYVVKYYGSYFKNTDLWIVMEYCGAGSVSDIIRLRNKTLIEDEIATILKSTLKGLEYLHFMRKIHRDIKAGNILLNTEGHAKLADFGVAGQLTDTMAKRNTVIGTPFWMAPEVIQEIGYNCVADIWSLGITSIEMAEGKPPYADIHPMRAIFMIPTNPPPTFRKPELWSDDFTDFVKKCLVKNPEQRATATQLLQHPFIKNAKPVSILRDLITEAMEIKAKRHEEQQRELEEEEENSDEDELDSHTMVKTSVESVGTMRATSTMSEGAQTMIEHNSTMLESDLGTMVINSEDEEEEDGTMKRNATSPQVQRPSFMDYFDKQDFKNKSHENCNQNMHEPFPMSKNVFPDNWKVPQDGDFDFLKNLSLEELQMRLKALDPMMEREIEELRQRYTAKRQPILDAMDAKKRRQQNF

mice treated with DOX = experiment: In vivo cardio protection: heart function and atrophy induced by DOX in mice; details: by week four, inhibitors daily i.p., FIG. 11
Procedure: In vivo cardio protection in mice by the inhibitors of MST1/2 protein kinases was verified by measuring heart function and atrophy induced by DOX (FIG. 8). Two inhibitors X1 (drug 1) and Y1 (drug 2) were administered to the mice daily by i.p. during the entire study period. After administration of the inhibitors for six days, DOX was administered every two days by i.p. for four times. Blood samples were collected periodically from the mice by […]. EdU was administered to the mice during the final four days of the study (FIG. 8).
Further, the mice were disected at the death or at the end of the study and the weight of the hearts was measured.
The heart function measured as EF % (ejection fraction) was impaired by DOX over the four-week study period.

[1] = system: C57B1/6 mice, MCAO-induced cerebral ischemia; experiment: Mouse cerebral ischemia model by transient middle cerebral artery occlusion (MCAO); assay type: in vivo
Procedure: To verify the protective effect of the inhibitors of MST1/2 protein kinases on the brain injury after ischemic stroke, X1 was administered to mouse cerebral ischemia model induced by transient middle cerebral artery occlusion (MCAO). Briefly, 8-12 week-old C57B1/6 mice (both male and female mice) were intraperitoneal injection with vehicle (DMSO) or 2 mg/kg X1 twice at 24 hours and 3 hours prior to MCAO procedure respectively. Mice were then anesthetized with 2.0% isoflurane, with their body temperature maintained at 37° C. with a heating pad. Following a midline cervical skin incision, the proximal right common carotid artery and the right external carotid artery were ligated. […]
Real-time cerebral blood flow was monitored using a laser speckle contrast imager (PeriCam PSI HR System, Perimed, Sweden) to confirm occlusion of the MCAO and reperfusion after removal of the filament. […] Brain sections were stained with 2% 2,3,5-Triphenyltetrazolium chloride (T8877; Sigma-Aldrich, St. Louis, Mo.) and scanned (HP Scanjet G4010) to allow quantification of infarcted and uninjured brain tissue. […]
In addition, neurological function of the MCAO-induced cerebral ischemia model mice was evaluated after treatment with the MST1/2 protein kinases inhibitor X1. […]

VCAM-1 = VCAM-1 expression in stimulated HUVECs (western blot); assay type: cell-based, human; details: for IC50: Homo sapiens, HUVEC, read-out: IC50 of inhibition of VCAM-1 expression
ICAM-1 = ICAM-1 expression in stimulated HUVECs (western blot); assay type: cell-based, human; details: 1 μM, 1 hour pretreatment, TNF-α (20 ng/mL) and IL-1β (10 ng/mL) 12 hours; FIG. 15A
[2] = system: inflammatory cytokines in HUVEC, such as MCP-1 and IL-6; experiment: mRNA levels of inflammatory cytokines in HUVEC after TNFα stimulation (qPCR); assay type: cell-based, human; details: in response to TNFα stimulation, FIGS. 17A-17D, 18A-18D
[3] = system: THP-1 cells / TNFα-activated ECs; experiment: Adhesion of THP-1 cells to TNFα-activated endothelial cells; assay type: cell-based, human; details: FIGS. 19A-19B, 20A-20B
Procedure: To substantiate the functional significance of inhibitors of MST1/2 protein kinases in activating endothelial cells, the monocyte adhesion to the activated endothelial cells was further examined.
Cell adhesion was assessed as the follows: THP1 cells were labeled with calcein-AM (Invitrogen) according to the instructions of the manufacturer. After the HUVECs were stimulated and washed, 2.5×10^5 calcein-labeled THP1 cells were added to each well and allowed to interact with MST1/2 inhibitors for 60 minutes at […]. Unbound cells were removed by gently washing with complete medium, and the number of attached cells was counted on an inverted fluorescent microscope.

[4] = system: inflammatory cytokines in the mouse lung; experiment: Murine septic model (LPS): inflammatory cytokine mRNA in mouse lung (real-time PCR); assay type: in vivo, mice; details: LPS 2.5 mg/kg i.p.; pretreated twice at 24 hrs and 3 hrs prior; 6 hrs after LPS; FIGS. 21A-21D
Procedure: In this regard, the mice were pretreated with X1 twice at 24 hrs and 3 hrs, respectively, prior to the injection of lipopolysaccharides (LPS). 6 hrs after injection of LPS to induce the sepsis model, the expression of inflammatory cytokines in the mouse lung was determined by real-time PCR.

Sequence of MST1 (Q13043 whole entry, looked up): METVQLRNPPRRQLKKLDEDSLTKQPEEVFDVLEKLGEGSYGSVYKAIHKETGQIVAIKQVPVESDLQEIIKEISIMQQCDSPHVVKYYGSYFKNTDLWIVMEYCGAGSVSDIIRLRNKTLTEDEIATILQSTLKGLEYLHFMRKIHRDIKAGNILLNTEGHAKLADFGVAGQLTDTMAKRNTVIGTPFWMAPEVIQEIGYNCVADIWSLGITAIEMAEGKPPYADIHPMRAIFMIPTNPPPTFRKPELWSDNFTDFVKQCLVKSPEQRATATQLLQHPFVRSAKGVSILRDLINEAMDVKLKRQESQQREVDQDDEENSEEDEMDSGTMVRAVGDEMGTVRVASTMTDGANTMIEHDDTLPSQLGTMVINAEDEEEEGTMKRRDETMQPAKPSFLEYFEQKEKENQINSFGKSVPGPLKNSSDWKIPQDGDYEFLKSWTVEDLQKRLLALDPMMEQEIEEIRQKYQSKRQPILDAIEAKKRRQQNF

IC50 (MST2) [µM] | Structure (SMILES) | IC50 (MST1) [µM] | further results
> 30 | CN1C(=O)c2ccccc2N(C)c2nc(Nc3cccc(S(N)(=O)=O)c3)ncc21 [IC-4] | > 30 | 
 | CN1C(=O)c2sccc2N(C)c2nc(Nc3ccc(S(N)(=O)=O)cc3)ncc21 [X1] |  | heart function measured as EF % (ejection fraction) (mice treated with DOX): reduced the EF % decrease; infarct size ([1]; 2 mg/kg i.p. twice, 24 hours and 3 hours prior to MCAO, 60 minutes ischemia, 23 hours reperfusion, FIGS. 13, 14A): significantly attenuated; neurological function (0-4-point neurological score) ([1]; MCAO mice, in comparison with vehicle treatment, FIG. 14B): reducing the damages to neurological functions; VCAM-1 expression (VCAM-1; 1 μM, 1 hour pretreatment, TNF-α (20 ng/mL) and IL-1β (10 ng/mL) 12 hours, FIG. 15A): substantially inhibited; IC50 (VCAM-1): 1.29 µM; expression of ICAM-1 (ICAM-1): barely affected; mRNA levels of inflammatory cytokines in HUVEC, such as MCP-1 and IL-6 [2]: markedly inhibited; adhesion of THP-1 cells to TNFα-activated ECs [3]: markedly inhibited; mRNA level of ICAM-1 in mouse lung [4]: markedly suppressed; mRNA level of IL-6 in mouse lung [4]: markedly suppressed; mRNA level of MCP-1 in mouse lung [4]: markedly suppressed; mRNA level of VCAM-1 in mouse lung [4]: markedly suppressed
> 30 | CN1C(=O)c2cc(Cl)ccc2N(C)c2nc(Nc3ccc(S(N)(=O)=O)cc3)ncc21 [IH-10] |  | 
> 30 | CCN1CCN(Cc2ccc(Nc3ncc4c(n3)N(C3CCCC3)c3ccccc3C(=O)N4C)cc2C(F)(F)F)CC1 [IF-6] |  | 
 | [2H]c1ccc2c(c1)N(C)c1nc(Nc3ccc(S(N)(=O)=O)cc3)ncc1N(C)C2=O [IH-7] | 3.12 | 
 | CN1C(=O)c2ccc(Cl)cc2N(C)c2nc(Nc3ccc(S(C)(=O)=O)cc3)ncc21 [IH-14] | > 30 | 
> 30 | CN1C(=O)c2sccc2N(C)c2nc(Nc3cc[nH]n3)ncc21 [II-27] |  | 
2.75 | CN1C(=O)c2sccc2N(C)c2nc(Nc3ccc(N)cc3)ncc21 [II-14] |  | IC50 (MST1; read-out: MST1 IC50): 2.16 µM
0.11 | CCN1c2ccccc2C(=O)N(C)c2cnc(Nc3ccc(S(N)(=O)=O)cc3)nc21 [ID-1] |  | IC50 (MST1; read-out: MST1 IC50): 0.04 µM
> 30 | CCN1c2ccccc2C(=O)N(C)c2cnc(Nc3cccc(S(N)(=O)=O)c3)nc21 [ID-3] |  | 
1.8 | CCN1CCN(Cc2ccc(Nc3ncc4c(n3)N(C)c3ccccc3C(=O)N4C)cc2C(F)(F)F)CC1 [IC-5] |  | IC50 (MST1; read-out: MST1 IC50): 1.91 µM
2.45 | CC(C)N1c2ccccc2C(=O)N(C)c2cnc(Nc3ccc(S(N)(=O)=O)cc3)nc21 [IE-1] |  | IC50 (MST1; read-out: MST1 IC50): 0.83 µM
 | CN1C(=O)c2ccccc2N(C)c2nc(Nc3ccc(S(N)(=O)=O)cc3)ncc21 [Y1] |  | heart function measured as EF % (ejection fraction) (mice treated with DOX): reduced the EF % decrease; IC50 (VCAM-1; HUVECs, FIGS. 15B, 16A-16B): 0.49 µM; mRNA levels of inflammatory cytokines in HUVEC, such as MCP-1 and IL-6 [2]: markedly inhibited; adhesion of THP-1 cells to TNFα-activated ECs [3]: markedly inhibited
> 30 | CN1CCN(S(=O)(=O)c2ccc(Nc3ncc4c(n3)N(C3CCCC3)c3ccccc3C(=O)N4C)cc2)CC1 [IF-4] |  | 
> 30 | CN1C(=O)c2sccc2N(C)c2nc(Nc3cccc(S(N)(=O)=O)c3)ncc21 [II-2] |  | 
> 30 | CC(C)N1c2ccccc2C(=O)N(C)c2cnc(Nc3cccc(S(N)(=O)=O)c3)nc21 [IE-2] |  | 

Structure (SMILES) | IC50 (MST2) [µM] | IC50 (MST1) [µM] | further results
NS(=O)(=O)c1ccc(Nc2ncc3c(n2)N(C2CCCC2)c2ccccc2C(=O)N3)cc1 [IB-1] | > 30 | > 30 | 
Cc1ccc2c(c1)C(=O)N(C)c1cnc(Nc3ccc(S(N)(=O)=O)cc3)nc1N2C [IH-6] | > 30 | > 30 | 
COc1cc(N2CCN(C)CC2)ccc1Nc1ncc2c(n1)N(C)c1ccsc1C(=O)N2C [II-16] | > 30 | > 30 | 
CN1C(=O)c2ccccc2N(C2CCCC2)c2nc(Nc3cccc(S(N)(=O)=O)c3)ncc21 [IF-5] | > 30 | > 30 | 
Cc1ccc2c(c1)C(=O)N(C)c1cnc(Nc3ccc(S(C)(=O)=O)cc3)nc1N2C [IH-3] | > 30 | > 30 | 
CN1c2ccccc2C(=O)Nc2cnc(Nc3ccc(NS(C)(=O)=O)cc3)nc21 [IA-6] | > 30 | > 30 | 
CN1C(=O)c2sccc2N(C)c2nc(Nc3ccc([N+](=O)[O-])cc3)ncc21 [II-11] | > 30 | > 30 | 
COc1cc(N2CCC(O)CC2)ccc1Nc1ncc2c(n1)N(C)c1ccsc1C(=O)N2C [II-22] | > 30 | > 30 | 
CN1C(=O)c2cccc3c2N(CC3)c2nc(Nc3cccc(S(N)(=O)=O)c3)ncc21 [IV-2] | > 30 | > 30 | 
CN1C(=O)c2ccccc2Nc2nc(Nc3cccc(S(N)(=O)=O)c3)ncc21 [IG-3] | > 30 | > 30 | 
